One data set is described as follows: Drug solubility. In kind it is physicochemical.

≈ marks a conversion by molar mass, not a printed value. Where two headings read alike, the source gives them in different places.

Usually solubility stands for the concentration that dissolves in the medium under given conditions. `CCOC(=O)N1c2ccc(C(F)(F)F)cc2[C@@H](N(Cc2cc(C(F)(F)F)cc(C(F)(F)F)c2)C(=O)OC)C[C@H]1CC` [Drug 2, [2R,4S]4-[(3,5-bis-trifluoromethyl-benzyl)-methoxycarbonyl-amino]-2-ethyl-6-trifluoromethyl-3,4-dihydro-2H-quinoline-1-carboxylic acid ethyl ester]: the solubility in the data set “Drug solubility” (water, read-out: solubility in water) is less than 0.0001 mg/mL.
On to `Cc1ccc(-c2cc(C(F)(F)F)nn2-c2ccc(S(N)(=O)=O)cc2)cc1` [Drug 1, 4-[5-(4-methylphenyl)-3-(trifluoromethyl)-1H-pyrazol-1-yl]benzenesulfonamide], for which the solubility in “Drug solubility” (MFD solution, read-out: solubility in MFD solution) is roughly 0.04 mg/mL (≈ 105 µM).
On to Ethylcellulose, for which the “amount of polymer soluble at pH 6.5” value is given as “less than 0.001 mg/mL”.

For the origin of these results see patent publication US9724362B2, “Pharmaceutical compositions comprising nanoparticles and a resuspending material” (Bend Research, Inc., priority 2007, dated 2017).
